Source: ChEMBL document CHEMBL1138963, “Design, synthesis, and pharmacological evaluation of R/S-3,4-dihydro-2,2-dimethyl- 6-halo-4-(phenylaminocarbonylamino)-2H-1-benzopyrans: toward tissue-selective pancreatic beta-cell KATP channel openers structurally related to (+/-)-cromakalim” (J Med Chem, 2006)

How the values were obtained:
Pancreatic beta cell [1] = assay: Inhibition of insulin release in Wistar rat pancreatic islet beta cells; assay type: functional, cell-based
Pancreatic beta cell [2] = assay: Residual insulin release in Wistar rat pancreatic islet beta cells in presence of glucose at 1 uM; assay type: functional
Rattus norvegicus = species: Rattus norvegicus; assay: Myorelaxant activity against KCL-induced contraction of Wistar rat aortic rings; assay type: functional; conditions: Aorta
Pancreatic beta cell [3] = assay: Selectivity ratio, IC50 for Wistar rat pancreatic islet beta cells/EC50 for aortic rings; assay type: functional
Pancreatic beta cell [4] = assay: Residual insulin release in Wistar rat pancreatic islet beta cells in presence of glucose at 10 uM; assay type: functional

| SMILES | IC50 (Pancreatic beta cell [1]) | EC50 (Rattus norvegicus) | Activity (Pancreatic beta cell [2]) | Selectivity ratio (Pancreatic beta cell [3]) | Activity (Pancreatic beta cell [4]) |
| --- | --- | --- | --- | --- | --- |
| CC1(C)CC(NC(=O)Nc2ccccc2Cl)c2cc(Br)ccc2O1 (stereo not drawn) |  | > 30 µM |  |  | 41.8% |
| Cc1cccc(NC(=O)NC2CC(C)(C)Oc3ccc(Br)cc32)c1 (stereo not drawn) |  | > 10 µM |  |  | 63.4% |
| COc1cccc(NC(=O)NC2CC(C)(C)Oc3ccc(F)cc32)c1 (stereo not drawn) |  | > 10 µM |  |  | 66.6% |
| Cc1ccc(NC(=O)NC2CC(C)(C)Oc3ccc(F)cc32)cc1 (stereo not drawn) |  | > 30 µM |  |  | 70.6% |
| CC1(C)CC(NC(=O)Nc2ccccc2)c2cc(Br)ccc2O1 (stereo not drawn) |  | 2.3 µM |  |  | 75.9% |
| COc1ccc(NC(=O)NC2CC(C)(C)Oc3ccc(F)cc32)cc1 (stereo not drawn) |  | 15.5 µM |  |  | 89% |
| COc1ccccc1NC(=O)NC1CC(C)(C)Oc2ccc(Br)cc21 (stereo not drawn) |  | > 10 µM |  |  | 72.8% |
| COc1ccc(NC(=O)NC2CC(C)(C)Oc3ccc(Cl)cc32)cc1 (stereo not drawn) |  | > 30 µM |  |  | 79.3% |
| COc1cccc(NC(=O)NC2CC(C)(C)Oc3ccc(Cl)cc32)c1 (stereo not drawn) |  | > 10 µM |  |  | 84% |
| Cc1ccccc1NC(=O)NC1CC(C)(C)Oc2ccc(Br)cc21 (stereo not drawn) |  | > 30 µM |  |  | 79.5% |
| Cc1cccc(NC(=O)NC2CC(C)(C)Oc3ccc(Cl)cc32)c1 (stereo not drawn) |  | > 10 µM |  |  | 65.8% |
| CC1(C)CC(NC(=O)Nc2ccccc2Cl)c2cc(F)ccc2O1 (stereo not drawn) |  | > 30 µM |  |  | 51.4% |
| CC1(C)CC(NC(=O)Nc2cccc(Cl)c2)c2cc(F)ccc2O1 (stereo not drawn) | 3.67 µM | > 300 µM | 86% | <0.01 | 28% |
| COc1cccc(NC(=O)NC2CC(C)(C)Oc3ccc(Br)cc32)c1 (stereo not drawn) |  | > 10 µM |  |  | 73.5% |
| Cc1ccccc1NC(=O)NC1CC(C)(C)Oc2ccc(Cl)cc21 (stereo not drawn) |  | > 10 µM |  |  | 85% |
| CC1(C)CC(NC(=O)Nc2ccccc2)c2cc(F)ccc2O1 (stereo not drawn) |  | 17.1 µM |  |  | 83.8% |
| CC1(C)Oc2ccc(C#N)cc2C(N2CCCC2=O)C1O (racemic) [CROMAKALIM] | > 100 µM | 0.13 µM | 95.3% | >769.23 | 94.4% |

More lines, main results first:

| IC50 (Pancreatic beta cell [1]) | EC50 (Rattus norvegicus) | SMILES | Activity (Pancreatic beta cell [2]) | Selectivity ratio (Pancreatic beta cell [3]) | Activity (Pancreatic beta cell [4]) |
| --- | --- | --- | --- | --- | --- |
| 4.06 µM | > 30 µM | CC1(C)CC(NC(=O)Nc2cccc(Cl)c2)c2cc(Br)ccc2O1 (stereo not drawn) | 91.5% | <0.14 | 28.6% |
|  | > 30 µM | Cc1ccc(NC(=O)NC2CC(C)(C)Oc3ccc(Cl)cc32)cc1 (stereo not drawn) |  |  | 69.5% |
|  | > 300 µM | CC1(C)CC(NC(=O)Nc2ccccc2Cl)c2cc(Cl)ccc2O1 (stereo not drawn) |  |  | 40.3% |
|  | > 30 µM | Cc1cccc(NC(=O)NC2CC(C)(C)Oc3ccc(F)cc32)c1 (stereo not drawn) |  |  | 75.2% |
|  | > 10 µM | COc1ccc(NC(=O)NC2CC(C)(C)Oc3ccc(Br)cc32)cc1 (stereo not drawn) |  |  | 79.2% |
| 3.6 µM | > 30 µM | CC1(C)CC(NC(=O)Nc2ccc(Cl)cc2)c2cc(F)ccc2O1 (stereo not drawn) | 91.4% | <0.12 | 22.8% |
|  | > 30 µM | Cc1ccccc1NC(=O)NC1CC(C)(C)Oc2ccc(F)cc21 (stereo not drawn) |  |  | 79% |
|  | 7.8 µM | CC1(C)CC(NC(=O)Nc2ccccc2)c2cc(Cl)ccc2O1 (stereo not drawn) |  |  | 87.7% |
|  | > 10 µM | COc1ccccc1NC(=O)NC1CC(C)(C)Oc2ccc(F)cc21 (stereo not drawn) |  |  | 84.4% |
|  | > 30 µM | Cc1ccc(NC(=O)NC2CC(C)(C)Oc3ccc(Br)cc32)cc1 (stereo not drawn) |  |  | 72.9% |
| 3.85 µM | > 300 µM | CC1(C)CC(NC(=O)Nc2ccc(Cl)cc2)c2cc(Br)ccc2O1 (stereo not drawn) | 92.2% | <0.01 | 25.7% |
|  | > 10 µM | COc1ccccc1NC(=O)NC1CC(C)(C)Oc2ccc(Cl)cc21 (stereo not drawn) |  |  | 94.6% |
